Experimental data from patent US12123019B2, “Uses of kinase inhibitors for inducing and maintaining pluripotency” (Whitehead Institute for Biomedical Research, priority 2014, dated 2024).

Assays:
[1] = system: OCT4-ΔPE-GFP-negative (primed) human ESCs; test: Removal of latent OCT4-ΔPE-GFP-negative cells during 2i/L/DOX induction; format: cell-based; details: additional treatment with 0.1 μM PD173074 and 5 μM SB431542 upon addition of 2i/L/DOX
From the text: VSVG coated lentiviruses were generated in HEK-293 cells as described previously (Brambrink et al., 2008; Soldner et al., 2009; Soldner et al., 2011). Briefly, culture medium was changed 12 hr post-transfection and virus-containing supernatant was collected 48 to 72 hr post transfection. Viral supernatant was filtered through a […] filter. Virus-containing supernatants of the 2 reprogramming viruses (FUW-tetO-lox-hKLF2 and FUW-tetO-lox-hNANOG) were pooled and supplemented with the FUW-lox-M2rtTA virus and an equal volume of fresh culture medium. 1×10^6 human ESCs were seeded 24 hr before transduction in T75 flasks on matrigel in mTesr1 medium (STEMCELL Technologies). Two consecutive infections in the presence of […] of polybrene were performed over a period of 24 hr. Culture medium was changed 12 hr after the last infection. Five days after transduction, human ESCs were passaged using 0.25% trypsin/EDTA solution (Invitrogen) and re-plated on mitomycin C inactivated mouse embryonic fibroblast (MEF) feeder layers in conventional human ESC medium. To induce conversion to the naïve state, human ESCs were trypsinized and seeded at a density of 1×10^5 cells per 6 individual well on a MEF feeder layer in presence of ROCK inhibitor Y-27632. […]

[2] = system: clonal line of OCT4-ΔPE-GFP+ cells derived in the absence of transgenes; test: Withdrawal of single kinase inhibitors or growth factors from 5i/L/FA medium; format: cell-based, human; details: for differentiation and expression of pluripotency genes: FGF and Activin A removed together from 5i/L/FA
From the text: To investigate the relative contribution of individual components in 5i/L/FA medium, single kinase inhibitors or growth factors were removed from a clonal line of OCT4-ΔPE-GFP+ cells derived in the absence of transgenes. […] Therefore, the maintenance of OCT4-ΔPE-GFP reporter activity is dependent primarily on MEK inhibition and BRAF inhibition, while robust proliferation of GFP+ cells requires ROCK inhibition. Recombinant FGF enhances the induction of naïve reporter activity, but can be omitted in established GFP+ cells.

[3] = system: OCT4-ΔPE-GFP+ naïve human ESCs; test: Maintenance of OCT4-ΔPE-GFP+ naïve human ESCs with additional media additives or changed basal medium; format: cell-based; details: for proportion of OCT4-ΔPE-GFP+ cells: inhibitor included in 5i/L/A medium, three passages
From the text: The kinase inhibitors reported by Hanna and colleagues may have an additive effect in combination with the 5i/L/A medium. […] Another difference between the naïve human studies reported to date is the use of 20% knock-out serum replacement (KSR) or Albumax-containing medium (Gafni et al., 2013; Valamehr et al., 2014; Ware et al., 2014) vs. serum-free N2B27 medium (this study). The consequences of applying the inhibitor cocktail in the presence of 20% KSR was therefore investigated. […] It is concluded that the induction and maintenance of OCT4-ΔPE-GFP+ human ESCs is highly sensitive to the choice of basal medium.

[4] = system: WIBR3 OCT4-ΔPE-GFP+ human ESCs; test: Viability screen and titration: viable (DAPI-) OCT4-ΔPE-GFP+ cells after DOX withdrawal in 2i/L/SB590885; format: cell-based; details: for concentration giving a significant improvement in the proportion of viable GFP+ cells (titration): titration of PD0325901, CHIR99021 and SB590885, two passages after DOX withdrawal
Method: To screen for small molecules that support naïve human pluripotency, doxycycline was withdrawn from a clonal line of WIBR3 OCT4-ΔPE-GFP+ human ESCs derived in 2i/L/DOX. 24 h after Dox withdrawal, cells were dissociated in 0.25% trypsin/EDTA solution (Invitrogen) and seeded at a density of 5000 cells per individual well in 96 well plates on a MEF feeder layer in 2i/L supplemented with the ROCK-inhibitor Y-27632. After an additional 24 h, 2i/L medium in each individual 96 well was supplemented with a kinase inhibitor from the LINCS inhibitor library (Gray Laboratory, Dana Farber Cancer Institute, Boston, MA) at a final concentration of 1 μM. To improve experimental consistency the small molecule library was applied using the Caliper RapidPlate 96 well Liquid Handling System (Zymark, Westborough, MA). Briefly, a master plate containing 10 mM stock solution of the library in DMSO was first diluted to 100 μM in HEPES aqueous solution (daughter plate), and subsequently to 10 μM in N2B27 basal medium supplemented with 2i/L (granddaughter plate). This granddaughter plate was then diluted a further 10× in 2i/L medium, the final medium was pre-mixed and applied slowly to the 96 well assay plate. Following two medium changes during a seven day period the proportion of OCT4-ΔPE-GFP+ human ESCs in each well was assessed using the High-Throughput System on the LSRFortessa (Beckton-Dickinson, San Jose, CA). To screen for small molecules that improve the proportion of viable OCT4-ΔPE-GFP+ cells, this assay was modified by the addition of 1.0 μM SB590885 to each well and inclusion of a 10 minute DAPI (Life Technologies) staining prior to high-throughput FACS analysis. Viable cells were gated from the DAPI-negative fraction and subsequently assessed for GFP status.
This led us to consider whether other small molecules could cooperate with 2i/L/SB590885 to improve the fraction of viable GFP+ cells. Inclusion of a live/dead assay enhanced the resolution of the 96 well high-throughput FACS analysis, allowing for more sensitive discrimination between the proportion of viable OCT4-ΔPE-GFP+ cells cultured in 2i/L/DOX vs. 2i/L/SB590885 (FIG. 3A). This viability assay was included in a modified screen in which GFP+ cells were cultured for two passages after DOX withdrawal in 2i/L/SB590885 supplemented with the kinase inhibitor library (FIG. 3B-C and FIG. 10A). […] A titration of the concentrations of PD0325901, CHIR99021 and SB590885 was also performed during two passages after DOX withdrawal followed by high-throughput FACS analysis (FIG. 3D). […] This is reminiscent of recent evidence that lowered GSK3 inhibition reduces differentiation and enhances the self-renewal of rat ESCs (Meek et al., 2013). […]

[5] = system: OCT4-ΔPE-GFP+ human ESCs; test: Validation of hit compounds in 6 well format: DOX withdrawal and culture in 2i/L plus hit compound; format: cell-based
From the text: To identify compounds that sustain OCT4-ΔPE-GFP activity in the absence of KLF2 and NANOG expression, a kinase inhibitor library was screened in the presence of 2i/L for a period of 7 days after DOX withdrawal in 96 well format (FIG. 2A). This screen identified 10 different hit compounds that partially rescued the proportion of GFP+ cells when assayed by high-throughput FACS analysis (FIG. 2B-C and FIG. 9A). Notable among these hits were four separate inhibitors of BRAF and four inhibitors of upstream receptor tyrosine kinases (RTKs), including DDR1, VEGFR1 and FGFR1. A validation experiment was then performed in 6 well format by withdrawing DOX and culturing the cells in 2i/L supplemented with each hit compound for up to 10 passages (FIG. 2D). Nearly all hit compounds maintained a proportion of GFP+ cells similar to that observed with DOX. […] Gene expression analysis 5 passages after DOX withdrawal confirmed the absence of KLF2 and NANOG transgene expression and retention of endogenous OCT4 and GFP transcripts (FIG. 2E and FIG. 9B). To validate these findings in an independent system DOX-inducible KLF2 and NANOG transgenes were introduced in a line of wild-type WIBR3 human ESCs. Upon application of DOX and 2i/L, dome-shaped colonies appeared that could be expanded clonally.

[6] = system: transgene-dependent naïve human ES cells (subclone of WIBR3); test: Titration and proliferation assay in transgene-dependent naïve human ES cell line after DOX withdrawal (GSK3/Wnt signal modulators); format: cell-based; details: added to 4i/L/A: CHIR99021 1 μM replacing IM12, or IWR1 2.5 μM
Method: A transgene-dependent naïve human embryonic stem (ES) cell line, a subclone of WIBR3, was used to titrate different concentrations of inhibitors in 5i/L/A (see Theunissen et al., Cell Stem Cell, 2014). The cell line used is dependent on Doxycycline (DOX) to maintain the expression of two lentiviral transgenes, KLF2 and NANOG. […] A titration assay was performed to determine the optimal concentrations of small molecule inhibitors to maintain naïve human DES cells. The cells were subject to sequential passaging by single cell dissociation at low density (1:10) under four conditions: 2i/L, 5i/L/A, t5i/L/A (0.2 μM GSK3 inhibitor IM12) and 4i/L/A (removal of GSK3 inhibitor IM12).
The proliferation of naïve human ES cells in the presence of different Wnt signal modulators was quantified after the withdrawal of DOX from the transgene-dependent cell line described above. In a six-well plate, 1×10^5 cells were seeded per well and cells were dissociated and re-seeded at a 1:5 density for three successive passages. Cell numbers at successive passages were recorded under six conditions (n=2 per group): 2i/L/DOX (control), 2i/L, 5i/L/A, 4i/L/A (removal of GSK3 inhibitor IM12), 4i/L/A+CHIR99021 (1 μM), and 4i/L/A+IWR1 (2.5 μM).

[7] = three passages after withdrawal of the component from 5i/L/FA

## NC(=O)c1ccc(-c2nc(-c3ccc4c(c3)OCO4)c(-c3ccccn3)[nH]2)cc1 [SB431542]
[1]
  latent OCT4-ΔPE-GFP-negative cells: removed almost entirely

## hLIF: recombinant human LIF (made in-house)
[2]; [7]
  OCT4-ΔPE-GFP reporter activity: unaffected
  pluripotency gene expression: unaffected

## Cc1ccc(-n2nc(C(C)(C)C)cc2NC(=O)Nc2ccc(OCCN3CCOCC3)c3ccccc23)cc1 [BIRB796]
[3]
  proportion of OCT4-ΔPE-GFP+ cells: did not affect

## Cc1[nH]c2ccccc2c1C1=C(NCCc2ccc(F)cc2)C(=O)N(C)C1=O [IM12]
[4]; CHIR99021 replaced with IM12
  morphology upon long-term culture without DOX: improved morphology

## insulin: media additive
[3]; insulin added
  beneficial effect of additive: A beneficial effect was not observed

## O=C1c2ccccc2-c2n[nH]c3cccc1c23 [SP600125]
[3]; SP600125 added to 5i/L/A
  expression of KLF4 and KLF2: increase in expression of KLF4 and KLF2
[3]
  proportion of OCT4-ΔPE-GFP+ cells: did not affect

## O=C(NOC[C@H](O)CO)c1ccc(F)c(F)c1Nc1ccc(I)cc1F [PD0325901]
[4]
  concentration giving a significant improvement in the proportion of viable GFP+ cells (titration): 1 µM
[2]; [7]
  OCT4-ΔPE-GFP reporter activity: rapid and widespread loss
  colony morphology: rapid and widespread loss
  pluripotency gene expression: rapid and widespread loss

## CN(C)CCOc1ccc(-c2nc(-c3ccncc3)c(-c3ccc4c(c3)CC/C4=N\O)[nH]2)cc1 [SB590885]
[5]; 6 well, 2i/L plus hit compound, up to 10 passages without DOX
  colony morphology and proliferation: preserved the best colony morphology and proliferation
[5]; wild-type WIBR3 lines with DOX-inducible KLF2 and NANOG, maintained in 2i/L/SB590885 after DOX withdrawal
  colony morphology and expression of endogenous OCT4: retaining both colony morphology and the expression of endogenous OCT4
[4]; cells maintained in 2i/L/SB590885
  viability (FACS-based live/dead discrimination assay): reduced viability
[4]
  concentration giving a significant improvement in the proportion of viable GFP+ cells (titration): 0.5 µM
[2]; [7]
  OCT4-ΔPE-GFP reporter activity: rapid and widespread loss
  colony morphology: rapid and widespread loss
  pluripotency gene expression: rapid and widespread loss

## Cc1cnc(-c2cnc(NCCNc3ccc(C#N)cn3)nc2-c2ccc(Cl)cc2Cl)[nH]1 [CHIR99021]
[4]; higher concentrations of CHIR99021
  proportion of viable GFP+ cells: opposite effect
[4]; lower concentrations of CHIR99021
  proportion of viable GFP+ cells: improved the proportion of viable GFP+ cells
[4]
  concentration giving a significant improvement in the proportion of viable GFP+ cells (titration): 0.3 µM
[6]
  proliferation of naïve human cells (cell number): did not further stimulate the proliferation

## FGF: recombinant fibroblast growth factor 2 (R&D systems, 8 ng/mL)
[2]
  differentiation and expression of pluripotency genes: more differentiation and reduced expression
[2]; withdrawal of FGF from 5i/L/FA
  any of the parameters examined: no apparent effect

## CC(N)C1CCC(C(=O)Nc2ccncc2)CC1 (stereo not shown) [Y-27632]
[4]; Y-27632 (10 μM) added to 2i/L/SB590885 (0.5 μM), two passages
  proportion of viable GFP+ cells: improved the proportion of viable GFP+ cells
[2]; [7]
  proliferation: significant reduction

## Activin A: cytokine (Peprotech, 20 ng/mL)
[2]
  differentiation and expression of pluripotency genes: more differentiation and reduced expression
[2]; [7]
  OCT4-ΔPE-GFP reporter activity: did not cause a reduction

## COc1ccc(N(C(=O)Oc2c(C)cccc2C)c2ccnc(Nc3ccc(N4CCN(C)CC4)cc3)n2)c(OC)c1 [WH-4-023]
[4]; 1 μM WH-4-023 combined with optimized concentrations of PD0325901, CHIR99021 and SB590885
  proportion of viable OCT4-ΔPE-GFP+ cells after DOX withdrawal: further improved
[4]; two passages after DOX withdrawal in 2i/L/SB590885 supplemented with kinase inhibitor library
  fraction of viable GFP+ cells: improved the fraction of viable GFP+ cells
[2]; [7]
  OCT4-ΔPE-GFP reporter activity: slight reduction
  colony morphology: change in morphology

## O=C(Nc1cccc2cccnc12)c1ccc(N2C(=O)[C@@H]3[C@H](C2=O)[C@@H]2C=C[C@H]3C2)cc1 [IWR1]
[6]
  proliferation of naïve human cells (cell number): did not further stimulate the proliferation
